Test results reported in PubChem BioAssay AID344 (DTP/NCI, 2004).
Inconclusive results and toxic doses are left out.

Test system: mice, LPC-1 plasma cell tumor ip, median survival T/C
Experiment: NCI In Vivo Anticancer Drug Screen. Data for tumor model Lieberman Plasma Cell No. 1 (LPC-1) (intraperitoneal) in unknown mice
Conditions: endpoint: median survival time, higher = longer survival
Method: The antitumor activity of compounds was measured in mice bearing transplantable tumors. Survival or tumor size were measured and the results are expressed as the measurement made in the treated group (T) divided by the measurement made in the vehicle treated control group (C). The tumor model used in this assay is Lieberman Plasma Cell No. 1 (LPC-1) (intraperitoneal) in unknown mice

[1] = dose: 0.39 mg/kg/injection, schedule: Q01DX028 (sc), vehicle: other
[2] = dose: 0.65 mg/kg/injection, schedule: Q01DX028 (sc), vehicle: other
[3] = dose: 1.08 mg/kg/injection, schedule: Q01DX028 (sc), vehicle: other
[4] = dose: 1.8 mg/kg/injection, schedule: Q01DX028 (sc), vehicle: other

With COc1ccc2c(c1)C(C)=CC(C)(C)N2 the T/C (dose: 200.0 mg/kg/injection, schedule: Q01DX028 (sc), vehicle: steriod suspending solution) was 110 % of control and the T/C (dose: 400.0 mg/kg/injection, schedule: Q01DX028 (sc), vehicle: steriod suspending solution) was 154 % of control.

COC12C(COC(N)=O)C3=C(C(=O)C(C)=C(N)C3=O)N1CC1C2N1C (stereo not given) was tested, and the T/C (dose: 0.7 mg/kg/injection, schedule: Q01DX028 (sc), vehicle: saline) was 124 % of control, the T/C (dose: 2.0 mg/kg/injection, schedule: Q01DX028 (sc), vehicle: saline) was 178 % of control and the T/C (dose: 3.0 mg/kg/injection, schedule: Q01DX028 (sc), vehicle: saline) was 156 % of control.

For COC(=O)c1nc(-c2ccc3c(n2)C(=O)C(N)=C(OC)C3=O)c(N)c(-c2ccc(OC)c(OC)c2O)c1C, the T/C [1] was 100 % of control, the T/C [2] was 100 % of control and the T/C [3] was 100 % of control. For the same molecule, the T/C [4] was 100 % of control, the T/C (dose: 3.0 mg/kg/injection, schedule: Q01DX028 (sc), vehicle: other) was 100 % of control and the T/C (dose: 5.0 mg/kg/injection, schedule: Q01DX028 (sc), vehicle: other) was 102 % of control.

CO[C@H](C(=O)[C@@H](O)[C@@H](C)O)[C@@H]1Cc2cc3cc(OC4CC(OC5CC(O)C(O)C(C)O5)C(O)C(C)O4)c(C)c(O)c3c(O)c2C(=O)[C@H]1OC1CC(OC2CC(OC3CC(C)(O)C(O)C(C)O3)C(O)C(C)O2)C(O)C(C)O1 (stereo not given in full) was tested, and the T/C (dose: 0.2 mg/kg/injection, schedule: Q01DX028 (sc), vehicle: saline) was 100 % of control and the T/C (dose: 0.4 mg/kg/injection, schedule: Q01DX028 (sc), vehicle: saline) was 97 % of control.

COC1=C(N)C(=O)c2nc(-c3nc(C(=O)O)c(C)c(-c4ccc(OC)c(OC)c4O)c3N)ccc2C1=O was tested, and the T/C (dose: 0.14 mg/kg/injection, schedule: Q01DX028 (sc), vehicle: other) was 100 % of control, the T/C (dose: 0.23 mg/kg/injection, schedule: Q01DX028 (sc), vehicle: other) was 113 % of control and the T/C [1] was 115 % of control. For the same molecule, the T/C [2] was 115 % of control, the T/C [3] was 94 % of control and the T/C [4] was 100 % of control.

For C/C(=N\N=C(N)N)c1ccc(NC(=O)Nc2ccc(/C(C)=N/N=C(N)N)cc2)cc1, the T/C (dose: 10.0 mg/kg/injection, schedule: Q01DX028 (sc), vehicle: carboxymethylcellulose (CMC)) was 94 % of control, the T/C (dose: 20.0 mg/kg/injection, schedule: Q01DX028 (sc), vehicle: carboxymethylcellulose (CMC)) was 102 % of control and the T/C (dose: 40.0 mg/kg/injection, schedule: Q01DX028 (sc), vehicle: carboxymethylcellulose (CMC)) was 105 % of control. The T/C (dose: 80.0 mg/kg/injection, schedule: Q01DX028 (sc), vehicle: carboxymethylcellulose (CMC)) was 100 % of control.

For O=C(O)CCCc1ccc(N(CCCl)CCCl)cc1, the T/C (dose: 1.0 mg/kg/injection, schedule: Q01DX007 (sc), vehicle: saline) was 93 % of control, the T/C (dose: 2.0 mg/kg/injection, schedule: Q01DX007 (sc), vehicle: saline) was 109 % of control and the T/C (dose: 3.0 mg/kg/injection, schedule: Q01DX028 (sc), vehicle: methylcellulose (MC)) was 95 % of control. The T/C (dose: 4.0 mg/kg/injection, schedule: Q01DX007 (sc), vehicle: saline) was 118 % of control, the T/C (dose: 5.0 mg/kg/injection, schedule: Q01DX028 (sc), vehicle: methylcellulose (MC)) was 97 % of control and the T/C (dose: 8.4 mg/kg/injection, schedule: Q01DX028 (sc), vehicle: methylcellulose (MC)) was 100 % of control. The T/C (dose: 14.0 mg/kg/injection, schedule: Q01DX028 (sc), vehicle: methylcellulose (MC)) was 113 % of control and the T/C (dose: 16.0 mg/kg/injection, schedule: Q01DX007 (sc), vehicle: saline) was 112 % of control.

O=CN(O)CC(=O)O was tested, and the T/C (dose: 65.0 mg/kg/injection, schedule: Q01DX028 (sc), vehicle: carboxymethylcellulose (CMC)) was 93 % of control, the T/C (dose: 108.0 mg/kg/injection, schedule: Q01DX028 (sc), vehicle: carboxymethylcellulose (CMC)) was 90 % of control and the T/C (dose: 180.0 mg/kg/injection, schedule: Q01DX028 (sc), vehicle: carboxymethylcellulose (CMC)) was 90 % of control. For the same molecule, the T/C (dose: 300.0 mg/kg/injection, schedule: Q01DX028 (sc), vehicle: carboxymethylcellulose (CMC)) was 93 % of control, the T/C (dose: 500.0 mg/kg/injection, schedule: Q01DX028 (sc), vehicle: carboxymethylcellulose (CMC)) was 95 % of control and the T/C (dose: 833.0 mg/kg/injection, schedule: Q01DX028 (sc), vehicle: carboxymethylcellulose (CMC)) was 95 % of control.

For CCN(CC)CCNc1ccc(C)c2sc3ccccc3c(=O)c12 (tested in a mixture with another compound), the T/C (dose: 48.0 mg/kg/injection, schedule: Q01DX028 (sc), vehicle: saline) was 221 % of control, the T/C (dose: 69.0 mg/kg/injection, schedule: Q01DX028 (sc), vehicle: saline) was 231 % of control and the T/C (dose: 98.0 mg/kg/injection, schedule: Q01DX028 (sc), vehicle: saline) was 165 % of control. For the same molecule, the T/C (dose: 140.0 mg/kg/injection, schedule: Q01DX028 (sc), vehicle: saline) was 173 % of control.

For CN(C)c1nc(N(C)C)nc(N(C)C)n1, the T/C (dose: 50.0 mg/kg/injection, schedule: Q01DX009 (ip), vehicle: olive oil, sesame oil, peanut oil) was 92 % of control, the T/C (dose: 100.0 mg/kg/injection, schedule: Q01DX009 (ip), vehicle: other) was 122 % of control and the T/C (dose: 200.0 mg/kg/injection, schedule: Q01DX009 (ip), vehicle: other) was 110 % of control. The T/C (dose: 400.0 mg/kg/injection, schedule: Q01DX009 (ip), vehicle: other) was 106 % of control.

With O=c1[nH]c(=O)n(C2CC(O)C(CO)O2)cc1C(F)(F)F (stereo not given) the T/C (dose: 50.0 mg/kg/injection, schedule: Q01DX028 (sc), vehicle: water) was 102 % of control, the T/C (dose: 100.0 mg/kg/injection, schedule: Q01DX028 (sc), vehicle: water) was 100 % of control and the T/C (dose: 200.0 mg/kg/injection, schedule: Q01DX028 (sc), vehicle: water) was 100 % of control. For the same molecule, the T/C (dose: 400.0 mg/kg/injection, schedule: Q01DX028 (sc), vehicle: water) was 97 % of control.

For O=C(O)CCc1c[nH]c2ccc(N(CCCl)CCCl)cc12, the T/C (dose: 1.8 mg/kg/injection, schedule: Q01DX028 (sc), vehicle: carboxymethylcellulose (CMC)) was 182 % of control, the T/C (dose: 2.7 mg/kg/injection, schedule: Q01DX028 (sc), vehicle: carboxymethylcellulose (CMC)) was 113 % of control and the T/C (dose: 3.0 mg/kg/injection, schedule: Q01DX028 (sc), vehicle: carboxymethylcellulose (CMC)) was 164 % of control. The T/C (dose: 5.0 mg/kg/injection, schedule: Q01DX028 (sc), vehicle: carboxymethylcellulose (CMC)) was 151 % of control, the T/C (dose: 6.0 mg/kg/injection, schedule: Q01DX028 (sc), vehicle: carboxymethylcellulose (CMC)) was 163 % of control and the T/C (dose: 9.0 mg/kg/injection, schedule: Q01DX028 (sc), vehicle: carboxymethylcellulose (CMC)) was 86 % of control.
